Earlier results, collected in patent publication US20230025286A1, “PHARMACEUTICAL COMPOSITION COMPRISING ELTROMBOPAG BIS(MONOETHANOLAMINE)” (SYNTHON B.V., priority 2019, published 2023).

Experiments:
[1] = background statement, no method or value given
[2] = background statement, no method or value given; remark: listed apart in the source

CC1=NN(c2ccc(C)c(C)c2)C(=O)/C1=N\Nc1cccc(-c2cccc(C(=O)O)c2)c1O.NCCO.NCCO [Eltrombopag bis(monoethanolamine), 3′-{(2Z)-2-[1-(3,4-dimethylphenyl)-3-methyl-5-oxo-1,5-dihydro-4H-pyrazol-4-ylidene]hydrazino}-2′-hydroxy-3-biphenylcarboxylic acid bis(monoethanolamine)]
solubility [1]: low | permeability [2]: medium
